In US20210254101A1, “METHODS FOR TREATING SPINAL CORD INJURY” (THE CHILDREN'S MEDICAL CENTER CORPORATION, priority 2018, published 2021):

Columns and labels:
[1] = tested on: mice with staggered lesions; assay: Cortical stimulation with EMG responses recorded in the TA muscle; type: in vivo, mouse; settings: injured mice, compared to controls; FIG. 5D-5F
Experimental: To test directly if the treated spinal cord could more efficiently relay descending inputs to the lumbar spinal cord, cortical stimulation was performed and recorded EMG responses in the TA muscle (FIG. 5D). […] Thus, KCC2 treatment facilitates the transmission of descending inputs from the brain to the lumbar spinal cord.
For epidural stimulation and EMG recording, a customized head plate was secured over the skull, and a monopolar stimulation electrode (SSM33A05, World Precision Instruments, Inc.) was positioned epidurally over the representative hindlimb area of left motor cortex. A train of electrical stimuli (0.2 ms biphasic pulse, 100 ms pulse train, 20 Hz, 0.5-1.5 mA) was generated by pulse generator and isolator (Master 9 and Iso-Flex, A.M.P.I.), and delivered during quadrupedal standing in fully awake condition. Testing was performed without and with electrochemical stimulations. Peak-to-peak amplitude and latency of evoked responses were computed from EMG recordings of the right TA muscle.

[2] = tested on: neuropathic pain; settings: animal models; Gagnon et al., 2013; Ferrini et al., 2017; Knabl et al., 2008; cited from earlier work
[3] = tested on: mice with staggered lesions; assay: Hindlimb kinematic analysis (MotoRater) and EMG recording of TA and GS muscles during stepping; type: in vivo, mouse
Description: This extent of recovery is functionally significant, as stepping ability has been implicated as the limiting step for functional recovery in severe injury models (Schucht et al., 2002).
EMG Recording and cortical stimulation. The procedure for EMG recording in free moving animals was similar to that described previously (Pearson et al., 2005). In brief, at 9 weeks after surgery, 5 mice from each group (Control, CLP290 and AAV-KCC2 treated mice) underwent implantation of customized bipolar electrodes into selected hindlimb muscles to record EMG activity. Electrodes (793200, A-M Systems) were led by 30 gauge needles and inserted into the mid-belly of the medial gastrocnemius (GS) and tibialis anterior (TA) muscles of the right hindlimb. A common ground wire was inserted subcutaneously in the neck-shoulder area. Wires were routed subcutaneously through the back to a small percutaneous connector securely cemented to the skull of the mouse. EMG signals were acquired using a differential AC amplifier (1700, A-M Systems, WA) with 10-1000 Hz filtration, sampled at 4 kHz using a digitizer (PowerLab 16/35, ADInstruments), and analyzed by LabChart 8 (ADInstruments).
Behavioral Experiments. Motor function was evaluated with a locomotor open field rating scale on the Basso Mouse Scale (BMS). For transient pharmacological treatments, ten to fifteen minutes (van den Brand et al., 2012) prior to behavioral tests (grounding walking, all of which were performed individually), mice received systematic administration (i.p.) of the neural modulators listed above. It is important to note that with a single intraperitoneal injection, plasma CNO levels peak at 15 min and become very low by 2 h after injection (Guettier et al., 2009). For chronic pharmacological treatments, 24 hours prior to behavioral tests, mice received systematic administration of the compounds listed above. All behavioral tests were completed within 1-3 hours. For detailed hindlimb kinematic analysis, mice from different groups were placed in the MotoRater (TSE Systems, (Zorner et al., 2010)), and all kinematic analysis was performed based on data collected by the MotoRater.

[4] = Side effects of compounds tested in the study; type: in vivo, mouse; settings: even at high doses; data not shown
[5] = tested on: c-Fos; assay: c-Fos immunoreactivity in spinal cord segments between T7 and T10 after 1 hour walking; type: in vivo, mouse
Description: In mature neurons, GABA and glycine are inhibitory because they open chloride channels, which allow chloride ion influx leading to hyperpolarization. In contrast, during development, the elevated intracellular chloride levels render GABAA- and glycine-mediated currents depolarizing and generally excitatory. During early postnatal life, KCC2 upregulation in postnatal neurons is crucial for reducing intracellular chloride concentrations, transforming excitation into inhibition (Ben-Ari et al., 2012; Kaila et al., 2014). Thus, injury-induced KCC2 down-regulation (Boulenguez et al., 2010; Cote et al., 2014) would be expected to restore an immature state in which GABA and glycine receptors can depolarize neurons. In this scenario, KCC2 activation in spinal inhibitory neurons would transform local circuits in the relay zone towards a more physiological state, which is more receptive to descending inputs. To examine this, c-Fos immunoreactivity was used as a proxy of neuronal activity in the spinal cord segments between T7 and T10 at 8 weeks after injury, and after walking on a treadmill for 1 hour. In each group, the majority of c-Fos-positive cells in these spinal segments were also positively stained with NeuN, a neuronal marker (FIG. 11A, 11B). In injured mice without treatment, the c-Fos-positive neurons were concentrated in the dorsal horn of the spinal cord (FIG. 5A-5C), perhaps reflecting hypersensitivity to peripheral sensory inputs in these injured mice. […] This KCC2-transformed distribution pattern is similar to what was detected in intact mice, in response to walking (FIG. 5A-5C).
Immunohistochemistry and Imaging. The paraformaldehyde (PFA) fixed tissues were cryo-protected with 30% sucrose and processed using cryostat (section thickness 40 μm for spinal cord). Sections were treated with a blocking solution containing 10% normal donkey serum with 0.5% Triton-100 for 2 hours at room temperature before staining. The primary antibodies (4 □, overnight) used were: rabbit anti-GFAP [DAKO (Z0334), 1:600]; rabbit anti-5-HT [Immunostar (20080), 1:5,000]; chicken anti-GFP [Abcam (ab13970), 1:400]; rabbit anti-RFP [Abcam (ab34771), 1:400]; rabbit anti-PKCγ [Santa Cruz (sc211), 1:100]; rat anti-HA [Sigma (11867423001), 1:200]; rabbit anti-c-Fos [Cell signaling (2250s), 1:100]; and mouse anti-NeuN [Millipore (MAB377), 1:400]. Secondary antibodies (room temperature, 2 h) included: Alexa Fluor 488-conjugated donkey anti chicken and rabbit; and Alexa Fluor 594-conjugated donkey anti rabbit (all from Invitrogen). c-Fos immunoreactivity of spinal neurons was determined as previously described (Courtine et al., 2009), after 1-hour of continuous quadrupedal free walking (intact), stepping (CLP290 or AAV-KCC2 treated mice) or dragging (vehicle or AAV-GFP treated mice). The mice were returned to their cages, and were then anesthetized and sacrificed by intracardial perfusion of 4% PFA (wt/vol) in phosphate buffered saline (PBS) about 2 hours later.

[6] = T8/9, 8 weeks after injury, chronic treatment, FIG. 5A-5C

O=C1N=C(N2CCCCN2)S/C1=C\c1ccc(F)cc1OC(=O)N1CCCC1 [CLP290, [5-Fluoro-2-[(Z)-(2-hexahydropyridazin-1-yl-4-oxo-thiazol-5-ylidene)methyl]phenyl] pyrrolidine-1-carboxylate]
amplitude of evoked EMG signals in TA muscle [1]: significantly increased | effect on neuropathic pain [2]: effectively treat neuropathic pain in animal models | total hindlimb stride length ([3]; 9 weeks post staggered injury, versus vehicle, FIG. 1J): significantly increased | TA/GS activation pattern during stepping gait ([3]; compared with alternating TA/GS activation in intact mice, FIG. 1K): co-activation of TA and GS during the swing phase | oscillation of hindlimb joints ([3]; staggered-lesioned mice during stepping, FIGS. 1H-1K): significantly increased oscillation of hindlimb joints | bodyweight support during stepping ([3]; staggered-lesioned mice, 8-9 weeks after injury): could partially support their body weight | EMG activity of tibialis anterior (TA) and gastrocnemius soleus (GS) muscles ([3]; staggered-lesioned mice, FIG. 1K, 2H): showed both TA and GS activity | side effects [4]: negligible side effects even at high doses | c-Fos pattern after withdrawal of treatment ([5]; 2 weeks after withdrawal, FIGS. 11C and 11D): returned to what seen without treatment | c-Fos-positive neurons in the dorsal horn (laminae I-V) [5, 6]: a reduction in the dorsal horn | c-Fos-positive neurons in the intermediate/ventral spinal cord [5, 6]: a significant increase in the intermediate/ventral spinal cord
